From ChEMBL document CHEMBL4414569, “Myxochelin- and Pseudochelin-Derived Lipoxygenase Inhibitors from a Genetically Engineered Myxococcus xanthus Strain” (J Nat Prod, 2019)
Activity calls are given as the source filed them. The calls are words filed in the database; no cut-off is given here.

Molecular target: T1, Polyunsaturated fatty acid 5-lipoxygenase (Homo sapiens) (UniProt P09917)
T1 sequence (whole entry): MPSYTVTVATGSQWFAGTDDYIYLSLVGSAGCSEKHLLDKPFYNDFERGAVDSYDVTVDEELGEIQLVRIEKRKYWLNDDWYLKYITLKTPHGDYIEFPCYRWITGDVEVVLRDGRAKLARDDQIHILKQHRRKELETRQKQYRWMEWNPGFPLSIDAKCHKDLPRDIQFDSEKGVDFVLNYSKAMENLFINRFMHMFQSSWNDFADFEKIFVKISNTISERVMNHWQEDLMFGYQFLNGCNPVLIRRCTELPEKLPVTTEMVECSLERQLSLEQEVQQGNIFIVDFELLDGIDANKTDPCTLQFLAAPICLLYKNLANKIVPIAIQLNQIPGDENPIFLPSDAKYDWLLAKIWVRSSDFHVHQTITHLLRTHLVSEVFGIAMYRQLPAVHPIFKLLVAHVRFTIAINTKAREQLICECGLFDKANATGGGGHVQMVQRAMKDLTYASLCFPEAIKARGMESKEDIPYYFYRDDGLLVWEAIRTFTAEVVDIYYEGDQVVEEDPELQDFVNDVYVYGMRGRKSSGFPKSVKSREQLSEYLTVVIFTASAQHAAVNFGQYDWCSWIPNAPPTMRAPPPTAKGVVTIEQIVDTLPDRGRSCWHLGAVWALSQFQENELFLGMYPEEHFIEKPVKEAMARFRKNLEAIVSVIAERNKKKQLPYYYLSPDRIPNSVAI
Experiment: Inhibition of recombinant human 5-lipoxygenase at <10 uM using arachidonic acid as substrate preincubated for 10 mins followed by susbtrate addition and measured after 10 mins by reverse phase HPLC method

With NC[C@H](CCCCNC(=O)c1ccccc1O)NC(=O)c1ccccc1O the inhibition was “inactive”.
For NC[C@H](CCCCNC(=O)c1c(O)cccc1F)NC(=O)c1cccc(O)c1O, the inhibition was “inactive”.

Molecular target: T2, Polyunsaturated fatty acid 5-lipoxygenase (Homo sapiens, UniProt P09917)
T2 sequence (P09917 whole entry): T1 sequence (whole entry)
Experiment: Inhibition of recombinant human 5-lipoxygenase using arachidonic acid as substrate preincubated for 10 mins followed by susbtrate addition and measured after 10 mins by reverse phase HPLC method

O=C(NCCCC[C@@H](CO)NC(=O)c1cccc(O)c1O)c1cccc(O)c1O and NC[C@H](CCCCNC(=O)c1cccc(O)c1O)NC(=O)c1cccc(O)c1O are within 1.5-fold of each other in IC50: 1900 nM for the first, 1400 nM for the second.

Going from NC[C@H](CCCCNC(=O)c1ccccc1O)NC(=O)c1ccccc1O to NC[C@H](CCCCNC(=O)c1ccccc1O)NC(=O)c1cccc(O)c1O, the IC50 falls from greater than 10000 nM to 10000 nM.

Compared with O=C(NCCCC[C@H]1CN=C(c2ccccc2O)N1)c1ccccc1O, O=C(NCCCC[C@H]1CN=C(c2cccc(O)c2O)N1)c1ccccc1O is lower in IC50: greater than 10000 nM for the first, 2200 nM for the second. The second is the more potent here.

Going from NC[C@H](CCCCNC(=O)c1cccc(O)c1O)NC(=O)c1c(O)cccc1F to NC[C@H](CCCCNC(=O)c1c(O)cccc1F)NC(=O)c1cccc(O)c1O, the IC50 rises from 9300 nM to greater than 10000 nM.

Going from NC[C@H](CCCCNC(=O)c1cccc(O)c1O)NC(=O)c1ccccc1O to O=C(NCCCC[C@H]1CN=C(c2ccccc2O)N1)c1cccc(O)c1O, the IC50 falls from 5600 nM to 1500 nM (3.7-fold). The second is the more potent here.

O=C(NCCCC[C@H]1CN=C(c2cccc(O)c2O)N1)c1c(O)cccc1F and O=C(NCCCC[C@H]1CN=C(c2cccc(O)c2O)N1)c1cccc(O)c1O are within 1.5-fold of each other in IC50: 1100 nM for the first, 900 nM for the second.

In the case of O=C(NCCCC[C@H]1CN=C(c2c(O)cccc2F)N1)c1cccc(O)c1O, the IC50 is reported as 2200 nM.
